Where two headings read alike, the source gives them in different places.
Legend:
[1] = test system: influenza A/Puerto Rico/8/34 H1N1 (PR8) virus; experiment: microbe, parasite or virus in culture; assay type: cell-based; settings: for IC50: Influenza A virus
[2] = in vitro; settings: dog
[3] = test system: influenza A/Puerto Rico/8/34 H1N1 (PR8) virus; experiment: microbe, parasite or virus in culture; assay type: cell-based; settings: for IC50: Influenza A virus, 24 h, read-out: IC50 (concentration of compound causing 50% reduction of viral infection)
[4] = in vitro; settings: human
[5] = test system: influenza A/Puerto Rico/8/34 H1N1 (PR8) virus; assay type: cell-based
[6] = A549, 24 h, read-out: IC50 (concentration of compound causing 50% reduction of viral infection)

| Structure (SMILES) | IC50 [1, 6] [µM] | CC50 [2] [µM] | IC50 [3] [µM] | CC50 at 24 h [4] [µM] | antiviral activity against influenza A virus (in words) [1] | CC50 [4] [µM] | SI (Selectivity Index, CC50/IC50) [3] | IC50 ([1]; A549, read-out: IC50 range against viral replication) [µg/mL] | foci of infection in cell monolayers [5] |
| --- | --- | --- | --- | --- | --- | --- | --- | --- | --- |
| COc1cc(Br)c(C[N+](C)([O-])CCc2ccc(O)cc2)cc1O (stereo not drawn) [Compound 9, N-(2-Bromo-5-Hydroxy-4-Methoxybenzyl)-2-(4-Hydroxyphenyl)-N-Methylethan-1-Amine Oxide] | 377 ± 11.4 | 206 ± 7.9 | 86.8 ± 5.1 | 211 ± 8.1 |  |  |  |  |  |
| COc1ccc(C[N+](C)([O-])CCc2ccc(O)cc2)cc1O (stereo not drawn) [Compound 12a, N-(3-Hydroxy-4-Methoxybenzyl)-2-(4-Hydroxyphenyl)-N-Methylethan-1-Amine Oxide] | 78.8 ± 4.3 | 137 ± 5.8 | 137 ± 5.9 | 200 ± 7.1 |  |  |  |  |  |
| C[N+]([O-])(CCc1ccc(O)cc1)Cc1cccc(O)c1 (stereo not drawn) [Compound 12b, N-(3-hydroxybenzyl)-2-(4-hydroxyphenyl)-N-methylethan-1-amine oxide] | 83.2 ± 5.1 | 129 ± 6 | 138 ± 6.1 | 149 ± 6.2 |  |  |  |  |  |
| C[N+]([O-])(CCc1ccc(O)cc1)Cc1ccc(O)cc1 (stereo not drawn) [Compound 12c, N-(4-Hydroxybenzyl)-2-(4-Hydroxyphenyl)-N-Methylethan-1-Amine Oxide] | 80.2 ± 4.9 | 114 ± 5.2 | 84.7 ± 4.8 | 83.8 ± 5 |  |  |  |  |  |
| C[N+]([O-])(CCc1ccc(O)cc1)Cc1ccc([N+](=O)[O-])c(O)c1 (stereo not drawn) [Compound 12d, N-(3-Hydroxy-4-Nitrobenzyl)-2-(4-Hydroxyphenyl)-N-Methylethan-1-Amine Oxide] | 1240 ± 30.2 | 101 ± 4.9 | 70.2 ± 4 |  | deprived the molecule of antiviral activity | 113 ± 6.1 |  |  |  |
| C[N+]([O-])(CCc1ccc(O)cc1)Cc1ccccc1 (stereo not drawn) [Compound 12e, N-Benzyl-2-(4-Hydroxyphenyl)-N-Methylethan-1-Amine Oxide] |  | 109 ± 5.1 | 133 ± 5.8 |  |  |  | 0.81 |  |  |
| C[N+]([O-])(CCCc1ccccc1)Cc1cccc(O)c1 (stereo not drawn) [Compound 12h, N-(3-Hydroxybenzyl)-N-Methyl-3-Phenylpropan-1-Amine Oxide] | 70.4 ± 3.1 | 221 ± 8.9 | 73.2 ± 3.3 |  |  | 287 ± 8.3 |  | 70 to 73 | reduction of foci of infection |

Source: publication PMC7866262, “Laccase-Catalyzed 1,4-Dioxane-Mediated Synthesis of Belladine N-Oxides with Anti-Influenza A Virus Activity” (International Journal of Molecular Sciences, 2021)
